Experimental data as given in the OPERA property sets (Mansouri et al. 2018).

conditions: not given

Row | Structure (SMILES) | log10 vapour pressure (mmHg) | melting point [°C] | ready biodegradability | boiling point [°C] | log10 Koc (L/kg) | log10 Henry constant (atm·m³/mol) | log10 Koa
1 | O=C(O)CO | -1.7 | 79.5 | readily biodegradable | – | – | – | –
2 | CN(C)c1ccccc1N(C)C | – | 8.9 | – | 216 | – | – | –
3 | Cc1cc([N+](=O)[O-])ccc1O | – | 96 | – | – | – | – | –
4 | CC(C)CCN(CCC(C)C)CCC(C)C | – | – | – | 235 | – | – | –
5 | C1CNC1 | 2.25 | – | – | 63 | – | – | –
6 | C=Cc1ccccc1Cl | -0.0173 | -63.1 | not readily biodegradable | 189 | – | – | –
7 | C=C(C)Br | – | -126 | – | 48.4 | – | – | –
8 | CC(C=O)c1ccccc1 (stereo not given) | -0.569 | – | – | 204 | – | – | –
9 | O=C1C(F)=C(F)C(=O)C(F)=C1F | – | 184 | – | – | – | – | –
10 | O=C1CC[C@@H](C(=O)O)N1 | – | 185 | – | – | – | – | –
11 | COC(=O)c1ccncc1 | – | 16.1 | – | 208 | – | – | –
12 | Cc1cc(C)c(N)c(Cl)c1 | – | – | not readily biodegradable | – | – | – | –
13 | CC(C)OC(=O)c1cc(-c2nn(C)c(C(F)(F)F)c2Br)c(F)cc1Cl | -7.15 | 80 | – | – | – | – | –
14 | CC(C)=NN=C(C)C | – | -12.5 | – | 133 | – | – | –
15 | COc1ccc2ncccc2c1 | – | 26.5 | – | 306 | – | – | –
16 | CCCC(C)(O)CC(C)C (stereo not given) | – | – | – | 171 | – | – | –
17 | CCOC(=O)/C=C\C(=O)OCC | -0.979 | -3.65 | – | 218 | – | – | –
18 | Cc1cc(=O)cc(C)o1 | – | 132 | – | 251 | – | – | –
19 | COc1cccc(C)c1C | – | 29 | – | 199 | – | – | –
20 | C1=CC=CCC=C1 | 1.37 | -79.5 | – | 117 | – | – | –

Row | Structure (SMILES) | log10 vapour pressure (mmHg) | melting point [°C] | ready biodegradability | boiling point [°C] | log10 Koc (L/kg) | log10 Henry constant (atm·m³/mol) | log10 Koa
21 | Nc1ccc(S(=O)(=O)Nc2cnc3ccccc3n2)cc1 | – | 248 | – | – | – | – | –
22 | O=c1cn[nH]c(=O)[nH]1 | – | 274 | – | – | – | – | –
23 | Clc1cccs1 | 1.38 | -71.9 | – | 128 | – | – | –
24 | Cc1cc(O)c(Cl)c(C)c1Cl | – | 83 | – | – | – | – | –
25 | Cc1csc(S)n1 | – | 89.3 | – | – | – | – | –
26 | O=P(O)(O)CN(CP(=O)(O)O)CP(=O)(O)O | -11.2 | – | – | 480 | – | – | –
27 | CCOc1ccc(C(C)(C)COCc2cccc(Oc3ccccc3)c2)cc1 | – | 37 | – | – | – | – | –
28 | O=S(=O)(O)NC1CCCCC1 | – | 170 | – | – | – | – | –
29 | O=C(O)/C=C/Cl | – | 82 | – | – | – | – | –
30 | C=CC(C)(C)CC | 2.02 | -134 | – | 77.5 | – | – | –
31 | COc1ccc2c(c1)O[C@H]1c3ccc(O)cc3OC[C@@H]21 | – | 128 | – | – | – | – | –
32 | CCC(c1ccccc1)c1ccccc1 | – | 13.3 | – | 282 | – | – | –
33 | CCOC(=O)C(C)OC(=O)c1cc(Oc2ccc(C(F)(F)F)cc2Cl)ccc1[N+](=O)[O-] (stereo not given) | – | 45 | – | – | 4 | – | –
34 | FC(F)=C(Cl)Cl | – | -116 | – | 19 | – | – | –
35 | CC(=O)Oc1cc(C)c(OC(C)=O)c2ccccc12 | – | 113 | – | – | – | – | –
36 | CCB(O)O | – | 40 | – | – | – | – | –
37 | c1ccsc1 | 1.9 | -39.4 | not readily biodegradable | 84 | – | -2.64 | –
38 | NC(=O)/C=C/C(=O)[O-] | – | 172 | – | – | – | – | –
39 | CCOC(CN(C)C)OCC | – | – | – | 170 | – | – | –
40 | Oc1ccc2c(c1)Cc1ccccc1-2 | – | 168 | – | – | – | – | –

Row | Structure (SMILES) | log10 vapour pressure (mmHg) | melting point [°C] | ready biodegradability | boiling point [°C] | log10 Koc (L/kg) | log10 Henry constant (atm·m³/mol) | log10 Koa
41 | CCOCC(=O)OCC | – | – | – | 158 | – | – | –
42 | O=C(Cl)c1cc(C(=O)Cl)cc(C(=O)Cl)c1 | – | 36.3 | – | – | – | – | –
43 | C[C@H]1O[C@H](O[C@H]2CC[C@H](n3ccc(NC(=O)c4ccc(NC(=O)[C@@](C)(N)CO)cc4)nc3=O)O[C@@H]2C)[C@H](O)[C@@H](O)[C@@H]1N(C)C | – | 167 | – | – | – | – | –
44 | CC(Cl)Cl | 2.36 | -96.9 | not readily biodegradable | 57.4 | 1.48 | -2.25 | 2.41
45 | Brc1ccc2c3c(cccc13)CC2 | – | 52 | – | 335 | – | – | –
46 | C=C(C)[C@H]1Cc2c(ccc3c2O[C@@H]2COc4cc(OC)c(OC)cc4[C@@H]2C3=O)O1 | – | 176 | – | – | 4 | – | –
47 | O=C(O)c1cc(F)c(F)c(F)c1 | – | 98 | – | – | – | – | –
48 | CCN(CC)c1ccccc1C | – | -60 | – | 209 | – | – | –
49 | Cc1nnc(-c2ccccc2)c(=O)n1N | -8.19 | – | – | – | 2.17 | – | –
50 | Cn1c(=O)c2c(ncn2CC(O)CO)n(C)c1=O (stereo not given) | – | 162 | – | – | – | – | –
51 | Nc1ccc(Br)cc1[N+](=O)[O-] | – | 112 | – | – | – | – | –
52 | COCCOCCO | -0.602 | – | – | 193 | – | – | –
53 | CSCCC=O | – | – | – | 166 | – | – | –
54 | O=C1c2ccccc2-c2ccc(Cl)cc21 | – | 126 | – | – | – | – | –
55 | CCC(O)(COC(N)=O)c1ccccc1 (stereo not given) | – | 55 | – | – | – | – | –
56 | C[C@@H](Br)C(=O)Cl | – | – | – | 132 | – | – | –
57 | C[C@H](O)[C@H](O)[C@@H](O)[C@@H](O)C=O | – | 135 | – | – | – | – | –
58 | Clc1cnccn1 | – | – | – | 154 | – | – | –
59 | O=C(NCO)NCO | – | 126 | – | – | – | – | –
60 | COS(=O)(=O)c1ccc([N+](=O)[O-])cc1 | – | 94 | – | – | – | – | –

same assay, conditions: fish

Row | Structure (SMILES) | log10 biotransformation half-life (days) | log10 BCF
61 | Clc1ccc(-c2c(Cl)cc(Cl)c(Cl)c2Cl)cc1 | 1.84 | –
62 | Brc1cc(Br)c(Oc2c(Br)c(Br)c(Br)c(Br)c2Br)c(Br)c1 | – | 5.75
63 | C1=CC2C3C=CC(C3)C2C1 (stereo not given) | – | 2.34
64 | c1ccsc1 | -0.82 | 0.95
65 | C=C(C)[C@H]1Cc2c(ccc3c2O[C@@H]2COc4cc(OC)c(OC)cc4[C@@H]2C3=O)O1 | -0.59 | 1.41
66 | CCCCCCCCCCCCCOC(=O)CCCCC(=O)OCCCCCCCCCCCCC | -0.43 | –
